Test results taken from PMC9628480, “Discovery and structural characterization of chicoric acid as a SARS-CoV-2 nucleocapsid protein ligand and RNA binding disruptor” (Scientific Reports, 2022).
“And” between values parts separate entries of the source, which are not always exact repeats. Equal values may be shown once. Read-outs that look alike come from different tables or passages of the source. Numbered stars: 1 amine (or outer) side, 2 acyl side, 3 side chain; on linkers, the order of the positions; unused ones are H or OH. Bridge positions count the residues as written; N and C are the ends. Square brackets hold non-standard residues; d marks the D form. Peptide text beside a SMILES is read from it. * marks the point of attachment. hTyr(3S-OH,4S-OH,3'-OSO3H) = N[C@H](C(=O)O)[C@H](O)[C@@H](O)c1ccc(O)c(OS(=O)(=O)O)c1; Orn(4R-OH,5R-OH) = O=C([C@H](C[C@@H](O)[C@@H](O)N[*:3])N[*:1])[*:2]; Pro(3S-OH,4S-Me) = C[C@H]1CN[C@H](C(=O)O)[C@H]1O; X1 = CCCCCOc1ccc(-c2cc(-c3ccc(C(=O)*)cc3)no2)cc1; Gln(3R-OH) = NC(=O)C[C@@H](O)[C@H](N)C(=O)O; X2 = CC(C)CCCCCCCCC[C@H](CC(=O)[*:1])O[*:2]; Hyp = O=C(O)[C@@H]1C[C@@H](O)CN1

How the values were obtained:
[1] = target: T1, SARS-CoV-2 N protein-RNA1 interaction (Severe acute respiratory syndrome coronavirus 2, UniProt P0DTC9); experiment: biochemical; format: binding; details: for loss in IC50 values in comparison to CA: single carboxylate at C1 versus CA
T1 construct: made in house; host or cells: Escherichia coli BL21 (DE3)

N protein-RNA1 complex = target: T2, N protein-RNA1 complex (Severe acute respiratory syndrome coronavirus 2, UniProt P0DTC9); format: binding, SARS-CoV-2; details: protein:compound 1:2 ratio
T2 construct: made in house; host or cells: Escherichia coli BL21 (DE3)

[2] = target: T3, SARS-CoV-2 N protein (full-length) (Severe acute respiratory syndrome coronavirus 2, UniProt P0DTC9); experiment: DLS aggregation assay of N protein; details: compound 20 µM, two-fold molar excess
T3 construct: made in house; host or cells: Escherichia coli BL21 (DE3)
Description: Aggregation assays were performed with the full-length N protein diluted to 10 µM in 50 mM sodium phosphate buffer, 100 mM NaCl (pH, 7.6), with subsequent addition of 20 µM of each test compounds or 1% DMSO used as diluent. […] Samples were evaluated by DLS in a ZetaSizer NanoS (Malvern) equipment, at 10 °C, using default parameters set by the equipment.

multiple human viruses = details: cited from earlier work
SARS-CoV-2 [3] = details: cited from earlier work
[4] = target: T1, SARS-CoV-2 N protein-RNA1 interaction; experiment: Primary FP HTS at 20 µM compound; format: binding; details: compound 20 µM
SARS-CoV-2 [5] = experiment: SARS-CoV-2 replication assay in Vero CCL81 cells (plaque assay); format: cell-based
SARS-CoV-2 [6] = experiment: SARS-CoV-2 replication assay in Calu-3 cells (plaque assay); format: cell-based
SARS-CoV-2 particles = experiment: Virucidal assay in Vero CCL-81 cells; format: cell-based; details: particles incubated with CA 25 or 100 µM for 1 h
[7] = IC50 for blocking the N protein-RNA1 interaction
[8] = read-out: IC50 for blocking the N protein-RNA1 interaction

Molecule | IC50 [1, 7] | also measured
O=C1O[C@H]2[C@@H]3OC(=O)c4cc(O)c(O)c(O)c4-c4c(O)c(O)c5oc(=O)c6c(c(O)c(O)c7oc(=O)c4c5c76)-c4c(cc(O)c(O)c4O)C(=O)OC[C@H]3OC(O)[C@@H]2OC(=O)c2cc(O)c(O)c(O)c2-c2c1cc(O)c(O)c2O (mixture of isomers) [Punicalagin] | 0.7 µM | binding affinity of the N protein to RNA1 in the presence of compound (N protein-RNA1 complex): significantly reduced; effect on hydrodynamic radius (Rh) / oligomeric state of the N protein (DLS) [2]: appears to cause N protein aggregation; in vitro antiviral potencies (multiple human viruses): low micromolar range
O=C1OC[C@H]2OC(O)[C@H](O)[C@@H](O)[C@@H]2OC(=O)c2cc(O)c(O)c(O)c2-c2c(O)c(O)c3oc(=O)c4c(c(O)c(O)c5oc(=O)c2c3c54)-c2c1cc(O)c(O)c2O (mixture of isomers) [Punicalin] | 0.7 µM | in vitro antiviral potencies (multiple human viruses): low micromolar range
O=C(/C=C/c1ccc(O)c(O)c1)O[C@H]1[C@H](O)C[C@](O)(C(=O)O)C[C@H]1OC(=O)/C=C/c1ccc(O)c(O)c1 [4,5-Dicaffeoylquinic acid] | – | IC50 [1, 8]: 3 µM; loss in IC50 values in comparison to CA [1]: ~ 10 fold
Cc1cc2c(C(C)C)c(O)c(O)c(C=O)c2c(O)c1-c1c(C)cc2c(C(C)C)c(O)c(O)c(C=O)c2c1O [(R)-(-)-Gossypol acetic acid] | – | IC50 [1, 8]: 6.4 µM
CCCCCCCCCCCCCCCc1cccc(O)c1C(=O)O [Anacardic Acid] | – | IC50 [1, 8]: 7.7 µM
Oc1c(Cl)cc(Cl)cc1Sc1cc(Cl)cc(Cl)c1O [Bithionol] | 23 µM | –
CN(Cc1ccc(C(C)(C)C)cc1)Cc1cccc2ccccc12 [Butenafine] | 15.7 µM | –
O=C(O)C[C@@H]1C(=O)O[C@H]2[C@H](OC(=O)c3cc(O)c(O)c(O)c3)[C@@H](OC(=O)c3cc(O)c(O)c4c3[C@H]1[C@H](O)C(=O)O4)[C@H](OC(=O)c1cc(O)c(O)c(O)c1)O[C@@H]2COC(=O)c1cc(O)c(O)c(O)c1 [Chebulinic acid] | – | in vitro antiviral potencies (multiple human viruses): low micromolar range
O=C(O[C@@H]1O[C@@H]2COC(=O)c3cc(O)c(O)c(O)c3-c3c(cc(O)c(O)c3O)C(=O)O[C@H]([C@H]1O)[C@@H]2O)c1cc(O)c(O)c(O)c1 [Corilagin] | 2.4 µM | –
CC1=NN(c2ccc(C)c(C)c2)C(=O)/C1=N\Nc1cccc(-c2cccc(C(=O)O)c2)c1O [Eltrombopag] | 7.1 µM and 8.1 µM | –
CCCCCCCCCCCC1=C(O)C(=O)C=C(O)C1=O [Embelin] | 5 µM | –
C[C@@H](O)[C@H]1C(=O)N2C(C(=O)O)=C(S[C@@H]3CN[C@H](C(=O)Nc4cccc(C(=O)O)c4)C3)[C@H](C)[C@H]12 [Ertapenem sodium] | – | IC50 [1, 8]: 13.8 µM
O=C(O)c1cc(O)c(O)c(O)c1 [Gallic acid] | 23.3 µM | –
Cc1cc2c(C(C)C)c(O)c(O)c(C=O)c2c(O)c1-c1c(C)cc2c(C(C)C)c(O)c(O)c(C=O)c2c1O [Gossypol acetic acid] | 7.1 µM | –
Oc1c(Cl)cc(Cl)c(Cl)c1Cc1c(O)c(Cl)cc(Cl)c1Cl [Hexachlorophene] | 13 µM | –
O=C(NCc1ccc(Oc2ccccc2)cc1)c1nc(-c2cc(Br)c(O)c(Br)c2)no1 [IOWH-032] | – | IC50 [1, 8]: 7.7 µM
COc1cc(C(=O)O)ccc1NC(=O)[C@@H]1N[C@@H](CC(C)(C)C)[C@](C#N)(c2ccc(Cl)cc2F)[C@H]1c1cccc(Cl)c1F [Idasanutlin] | 6.5 µM | –
O=C(/C=C/c1ccc(O)c(O)c1)O[C@@H]1CC(O)(C(=O)O)C[C@@H](OC(=O)/C=C/c2ccc(O)c(O)c2)C1O (some centres unmarked) [Isochlorogenic acid A, 3,5-dicaffeoylquinic acid] | – | IC50 [1, 8]: 5.5 µM; loss in IC50 values in comparison to CA [1]: ~ 10 fold
C[C@@H]1NC(=O)[C@@H]2CCCN2C(=O)[C@H](CC(N)=O)NC(=O)[C@@H]2CSSC[C@H](N)C(=O)N[C@H]3CSSC[C@H](NC1=O)C(=O)N[C@@H]([C@@H](C)O)C(=O)NCC(=O)N[C@H](C(=O)N[C@@H](Cc1ccc(O)cc1)C(=O)O)CSSC[C@H](NC(=O)[C@H](Cc1ccc(O)cc1)NC(=O)[C@H](CCC(=O)O)NC3=O)C(=O)N2 [Linaclotide] (H-CCEYCCNPACTGCY-OH; disulfide 1-6, 2-10, 5-13) | 5.5 µM | –
CCCCCCO[C@@H](C)c1cccc(-c2csc(NC(=O)c3cc(Cl)c(/C=C(\C)C(=O)O)c(Cl)c3)n2)c1OC [Lusutrombopag] | 6 µM | –
COc1ccc2cc(-c3cc(-c4cc(Cl)cc(Cl)c4)nn3[C@@H](C)c3ccc(C(=O)NCCC(=O)O)cc3)ccc2c1 [MK 0893] | 14.4 µM | –

Molecule | IC50 [1, 7] | also measured
O=S(=O)(O)c1ccc(N=C2C=CC(=C(c3ccc(Nc4ccc(S(=O)(=O)O)cc4)cc3)c3ccc(Nc4ccc(S(=O)(=O)O)cc4)cc3)C=C2)cc1 [Methyl Blue] | – | IC50 [1, 8]: 4.2 µM
CCCCCOc1ccc(-c2cc(-c3ccc(C(=O)N[C@H]4C[C@@H](O)[C@@H](O)NC(=O)[C@@H]5[C@@H](O)[C@@H](C)CN5C(=O)[C@H]([C@H](O)CC(N)=O)NC(=O)[C@H]([C@H](O)[C@@H](O)c5ccc(O)c(OS(=O)(=O)O)c5)NC(=O)[C@@H]5C[C@@H](O)CN5C(=O)[C@H]([C@@H](C)O)NC4=O)cc3)no2)cc1 [Micafungin] (X1-[Orn(4R-OH,5R-OH)]T[Hyp][hTyr(3S-OH,4S-OH,3'-OSO3H)][Gln(3R-OH)][Pro(3S-OH,4S-Me)]; lactam 1-C) | 10.4 µM | –
CCCCCCCC/C=C\CCCCCCCC(=O)O [Oleic acid] | 15.7 µM | –
O=C(OC[C@H]1O[C@@H](OC(=O)c2cc(O)c(O)c(O)c2)[C@H](OC(=O)c2cc(O)c(O)c(O)c2)[C@@H](OC(=O)c2cc(O)c(O)c(O)c2)[C@@H]1OC(=O)c1cc(O)c(O)c(O)c1)c1cc(O)c(O)c(O)c1 [Pentagalloylglucose] | 11.6 µM | –
O=C(Nc1cccc2c(=O)cc(-c3nnn[nH]3)oc12)c1ccc(OCCCCc2ccccc2)cc1 [Pranlukast (hemihydrate), Pranlukast] | 7.8 µM | –
Cc1cc(/C=C(\C#N)C(=O)Nc2cccc(Br)c2)c(C)n1-c1ccc(C(=O)O)cc1 [RNPA1000] | – | IC50 [1, 8]: 9.6 µM
O=c1ccc2[n+]([O-])c3ccc(O)cc3oc-2c1 [Resazurin] | 10.5 µM | –
O=C(O)c1cc(O)c2c(c1)[C@H]([C@H]1c3cc(C(=O)O)cc(O)c3C(=O)c3c(O[C@@H]4O[C@H](CO)[C@@H](O)[C@H](O)[C@H]4O)cccc31)c1cccc(O[C@@H]3O[C@H](CO)[C@@H](O)[C@H](O)[C@H]3O)c1C2=O [Sennoside A] | 5.7 µM | –
COc1ccc2c(O[C@@H]3C[C@H]4C(=O)N[C@]5(C(=O)NS(=O)(=O)C6CC6)C[C@H]5/C=C\CCCCN(C)C(=O)[C@@H]4C3)cc(-c3nc(C(C)C)cs3)nc2c1C [Simeprevir] | 16.5 µM | –
CC(C)=CCOc1ccc(/C=C/C(=O)c2ccc(OCC=C(C)C)cc2OCC(=O)O)cc1 [Sofalcone] | 18.5 µM | –
CC(C)(Sc1cc(C(C)(C)C)c(O)c(C(C)(C)C)c1)Sc1cc(C(C)(C)C)c(OC(=O)CCC(=O)O)c(C(C)(C)C)c1 [Succinobucol] | 8.1 µM | –
Cc1ccnc(NS(=O)(=O)c2ccc(N)cc2)n1 [Sulfamerazine] | 6.5 µM | –
Cc1ccc(C(=O)Nc2ccc(S(=O)(=O)O)c3cc(S(=O)(=O)O)cc(S(=O)(=O)O)c23)cc1NC(=O)c1cccc(NC(=O)Nc2cccc(C(=O)Nc3cc(C(=O)Nc4ccc(S(=O)(=O)O)c5cc(S(=O)(=O)O)cc(S(=O)(=O)O)c45)ccc3C)c2)c1 [Suramin] | 0.8 µM | concentration reported to inhibit SARS-CoV-2 infection in cell culture (SARS-CoV-2 [3]): 20 µM
CC(C)CCCCCCCCC[C@@H]1CC(=O)N[C@@H](CCC(=O)O)C(=O)N[C@@H](CC(C)C)C(=O)N[C@H](CC(C)C)C(=O)N[C@@H](C(C)C)C(=O)N[C@@H](CC(=O)O)C(=O)N[C@H](CC(C)C)C(=O)N[C@@H](CC(C)C)C(=O)O1 [Surfactin] (EL[dL]VD[dL]L; linker N-C via X2) | 11.1 µM | –
COc1ccc2c(c1)C=C1Cn3c-2c(C2CCCCC2)c2ccc(cc23)C(=O)NS(=O)(=O)N(C)CCOCCN(C)C1=O [TMC647055] | 10 µM | –
COc1cc(C(=O)NS(=O)(=O)c2ccccc2C)ccc1Cc1cn(C)c2ccc(NC(=O)OC3CCCC3)cc12 [Zafirlukast] | 10.4 µM | –
O=C(/C=C/c1ccc(O)c(O)c1)O[C@H](Cc1ccc(O)c(O)c1)C(=O)O [rosmarinic acid] | – | N protein-RNA1 disruption [4]: low
C[C@@H]1O[C@@H](O[C@@H]2[C@@H](O)[C@H](OCCc3ccc(O)c(O)c3)O[C@H](CO)[C@H]2OC(=O)/C=C/c2ccc(O)c(O)c2)[C@H](O)[C@H](O)[C@H]1O [verbascoside] | – | N protein-RNA1 disruption [4]: low
L-Chicoric acid | – | antiviral activity at 25 and 100 µM (SARS-CoV-2 [5]): antiviral activity at 100 µM only; reduction in infectious viral load (SARS-CoV-2 [5]): tenfold; antiviral activity at 25 and 100 µM (SARS-CoV-2 [6]): antiviral activity at 100 µM only; reduction in infectious viral load (SARS-CoV-2 [6]): 100 fold; virucidal activity against SARS-CoV-2 (SARS-CoV-2 particles): slight virucidal activity
Tannic acid | – | IC50 [1, 8]: 1.4 µM
Verteporfin | – | IC50 [1, 8]: 10.8 µM
